The values below come from US8236792B2, “Substituted pyrrolidine amides as modulators of the histamine H3 receptor” (Janssen Pharmaceutica NV, priority 2008, dated 2012).

Where only a bound is given, the exact number is not on record here.

The target in this experiment is T1, cloned human H3 receptors (Homo sapiens, UniProt Q9Y5N1).
T1 construct: expressed in transfected cells
T1 sequence (Q9Y5N1 whole entry): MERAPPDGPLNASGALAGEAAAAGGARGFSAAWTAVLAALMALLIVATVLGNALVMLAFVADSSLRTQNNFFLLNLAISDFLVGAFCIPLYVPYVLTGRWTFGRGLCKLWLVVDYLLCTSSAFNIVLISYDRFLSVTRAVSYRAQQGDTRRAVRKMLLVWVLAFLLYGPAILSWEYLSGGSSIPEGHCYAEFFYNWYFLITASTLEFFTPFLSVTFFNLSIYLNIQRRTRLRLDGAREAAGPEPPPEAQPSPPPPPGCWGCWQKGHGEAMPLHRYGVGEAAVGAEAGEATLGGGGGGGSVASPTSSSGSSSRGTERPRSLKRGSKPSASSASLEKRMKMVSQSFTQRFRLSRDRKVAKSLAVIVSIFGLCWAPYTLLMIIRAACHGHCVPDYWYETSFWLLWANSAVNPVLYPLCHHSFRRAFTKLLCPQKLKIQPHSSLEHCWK
The experiment in a line: H3 Receptor Binding (Human) Method 1. As to conditions: receptor stably expressed in SK-N-MC cells, free base forms, average of results.
In general, Ki refers to a dissociation constant, usually derived from enzyme kinetics or from competition with a known ligand. A higher Ki goes with a looser hold on the target. `CC(C)(C)OC(=O)N1C[C@@H](Oc2ccc(F)cc2)C[C@H]1C(=O)N1CCN(C2CCC2)CC1` [Example 12, (2S,4S)-2-(4-Cyclobutyl-piperazine-1-carbonyl)-4-(4-fluoro-phenoxy)-pyrrolidine-1-carboxylic acid tert-butyl ester] came in with a Ki above 1500 nM. With `CC(C)(C)OC(=O)N1C[C@H](Oc2ccc(F)cc2)C[C@H]1C(=O)N1CCCN(C2CCC2)CC1` [Example 15, (2S,4R)-2-(4-Cyclobutyl-[1,4]diazepane-1-carbonyl)-4-(4-fluoro-phenoxy)-pyrrolidine-1-carboxylic acid tert-butyl ester], the Ki stood at 25 nM. This counts as double-digit nanomolar. `CC(C)(C)OC(=O)N1C[C@@H](Oc2ccc(F)cc2)C[C@@H]1C(=O)N1CCCN(C2CCC2)CC1` [Example 18, (2R,4S)-2-(4-Cyclobutyl-[1,4]diazepane-1-carbonyl)-4-(4-fluoro-phenoxy)-pyrrolidine-1-carboxylic acid tert-butyl ester] showed an inhibitory constant (Ki) of 5 nM. Compared with the last compound, the Ki is about 5-fold lower. As for `CC(C)(C)OC(=O)N1C[C@@H](Oc2cccc(C#N)c2)C[C@@H]1C(=O)N1CCCN(C2CCC2)CC1` [Example 22, (2R,4S)-4-(3-Cyano-phenoxy)-2-(4-cyclobutyl-[1,4]diazepane-1-carbonyl)-pyrrolidine-1-carboxylic acid tert-butyl ester], the figure is 3 nM; as for `CC(C)(C)OC(=O)N1CC(Oc2cccc(Cl)c2)C[C@H]1C(=O)N1CCCN(C2CCC2)CC1` (stereo partly drawn) [Example 42, (2S)-4-(3-Chloro-phenoxy)-2-(4-cyclobutyl-[1,4]diazepane-1-carbonyl)-pyrrolidine-1-carboxylic acid tert-butyl ester], 24 nM; as for `CC(C)(C)OC(=O)N1CC(Oc2ccc(Cl)cc2)C[C@H]1C(=O)N1CCCN(C2CCC2)CC1` (stereo partly drawn) [Example 43, (2S)-4-(4-Chloro-phenoxy)-2-(4-cyclobutyl-[1,4]diazepane-1-carbonyl)-pyrrolidine-1-carboxylic acid tert-butyl ester], 33 nM. With `CC(C)(C)OC(=O)N1CC(Oc2ccc(Cl)c(Cl)c2)C[C@H]1C(=O)N1CCCN(C2CCC2)CC1` (stereo partly drawn) [Example 44, (2S)-2-(4-Cyclobutyl-[1,4]diazepane-1-carbonyl)-4-(3,4-dichloro-phenoxy)-pyrrolidine-1-carboxylic acid tert-butyl ester], the affinity corresponds to a Ki of 52 nM. This Ki lies about 1.6-fold higher than the previous one. `CC(C)(C)OC(=O)N1CC(Oc2ccc(C#N)cc2)C[C@H]1C(=O)N1CCCN(C2CCC2)CC1` (stereo partly drawn) [Example 45, (2S)-4-(4-Cyano-phenoxy)-2-(4-cyclobutyl-[1,4]diazepane-1-carbonyl)-pyrrolidine-1-carboxylic acid tert-butyl ester]: the Ki stood at 8 nM. As for `CSc1ccc(OC2C[C@@H](C(=O)N3CCCN(C4CCC4)CC3)N(C(=O)OC(C)(C)C)C2)cc1` (stereo partly drawn) [Example 46, (2S)-2-(4-Cyclobutyl-[1,4]diazepane-1-carbonyl)-4-(4-methylsulfanyl-phenoxy)-pyrrolidine-1-carboxylic acid tert-butyl ester], affinity was put at a Ki of 35 nM. In the case of `CC(C)(C)OC(=O)N1CC(Oc2ccccc2)C[C@H]1C(=O)N1CCCN(C2CCC2)CC1` (stereo partly drawn) [Example 47, (2S)-2-(4-Cyclobutyl-[1,4]diazepane-1-carbonyl)-4-phenoxy-pyrrolidine-1-carboxylic acid tert-butyl ester], the affinity, expressed as Ki, was 50 nM. On to `CC(C)O[C@@H]1C[C@@H](C(=O)N2CCCN(C3CCC3)CC2)N(C(=O)OC(C)(C)C)C1` [Example 59, (2S,4R)-2-(4-Cyclobutyl-[1,4]diazepane-1-carbonyl)-4-isopropoxy-pyrrolidine-1-carboxylic acid tert-butyl ester], for which the Ki came to 16 nM. As to `O=C([C@@H]1C[C@H](Oc2ccc(F)cc2)CN1)N1CCN(C2CCC2)CC1` [Example 63, (2S,4S)-2-(4-Cyclobutyl-piperazine-1-carbonyl)-4-(4-fluoro-phenoxy)-pyrrolidine], the Ki was found to be 284 nM.
